Laboratory results taken from the supplement of paper PMC10307832.

Assays:
Assay in all cases: relative viability (nuclei count vs DMSO), 5 days (fraction); higher = more cells survive
[1] = compound: O=C(/C=C/c1cccnc1)NCCCCC1CCN(C(=O)c2ccccc2)CC1 [Daporinad] + O=C(CCCCCCC(=O)Nc1ccccc1)NO [Vorinostat] (partner 1 µM)
Summary of the method: (§1)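 For relative viability, nuclei counts in treated wells were divided by those in vehicle wells. Lung cancer cell lines had been pin-tool dosed in 1536-well plates the day after seeding and cultured for 5 days, then fixed and stained in one step (final 0.05% Triton X-100, 1% formaldehyde, 1 ug/ml Hoechst) and imaged at 4×. Doses were one drug alone or a fixed anchor-drug dose plus five library-drug doses (not always all listed) in √10 steps, and values are duplicate-plate medians.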

[2] = compound: COc1cc(Nc2ncc(F)c(Nc3ccc4c(n3)NC(=O)C(C)(C)O4)n2)cc(OC)c1OC [R406] + Cc1nc(NC(=O)N2CCC[C@H]2C(N)=O)sc1-c1ccnc(C(C)(C)C(F)(F)F)c1 [Alpelisib] (partner 2 µM)
Summary of the method: as §1

[3] = compound: COc1cc(Nc2ncc(F)c(Nc3ccc4c(n3)NC(=O)C(C)(C)O4)n2)cc(OC)c1OC [R406] + CC(=O)Nc1cccc(-n2c(=O)n(C3CC3)c(=O)c3c(Nc4ccc(I)cc4F)n(C)c(=O)c(C)c32)c1 [Trametinib] (partner 0.02 µM)
Summary of the method: as §1

[4] = compound: COc1cc(Nc2ncc(F)c(Nc3ccc4c(n3)NC(=O)C(C)(C)O4)n2)cc(OC)c1OC [R406] + N=C(N)NC(=N)NCCc1ccccc1 [Phenformin] (partner 250 µM)
Summary of the method: as §1

Cell Line | relative viability ([1]; first compound 0.0005 µM) | relative viability ([1]; first compound 0.001581 µM) | relative viability ([1]; first compound 0.005 µM) | relative viability ([1]; first compound 0.01581 µM) | relative viability ([2]; first compound 0.08 µM) | relative viability ([2]; first compound 0.253 µM) | relative viability ([2]; first compound 0.8 µM) | relative viability ([2]; first compound 2.53 µM) | relative viability ([2]; first compound 8 µM) | relative viability ([3]; first compound 0.08 µM) | relative viability ([3]; first compound 0.253 µM) | relative viability ([3]; first compound 0.8 µM) | relative viability ([3]; first compound 2.53 µM) | relative viability ([3]; first compound 8 µM) | relative viability ([4]; first compound 0.08 µM) | relative viability ([4]; first compound 0.253 µM) | relative viability ([4]; first compound 0.8 µM) | relative viability ([4]; first compound 2.53 µM) | relative viability ([4]; first compound 8 µM)
NCI-H322M | 0.891 | 0.877 | 0.831 | 0.669 | 0.811 | 0.807 | 0.774 | 0.375 | 0.457 | 0.515 | 0.532 | 0.452 | 0.475 | 0.421 | 0.709 | 0.721 | 0.853 | 0.582 | 0.275
NCI-H358 | 0.688 | 0.75 | 0.801 | 0.558 | 0.877 | 0.908 | 1 | 0.373 | 0.234 | 0.131 | 0.144 | 0.14 | 0.0877 | 0.103 | 0.298 | 0.3 | 0.309 | 0.151 | 0.115
NCI-H441 | 0.913 | 0.677 | 0.811 | 0.778 |  | 0.843 | 0.878 |  | 0.296 | 0.462 | 0.452 | 0.539 | 0.283 | 0.184 | 0.829 | 0.872 | 1.05 | 0.44 | 0.309
NCI-H460 | 0.743 | 0.719 | 0.687 | 0.643 | 0.495 | 0.476 | 0.665 |  | 0.0573 | 0.0847 | 0.4 | 0.258 | 0.0114 | 0.0382 | 0.552 | 0.682 | 0.609 | 0.105 | 0.102
NCI-H520 | 0.747 | 0.284 | 0.228 | 0.165 | 0.913 | 1.09 | 0.779 | 0.316 | 0.525 | 0.665 | 0.792 | 0.935 | 0.258 | 0.124 | 0.625 | 0.785 | 0.641 | 0.28 | 0.188
NCI-H596 | 0.582 | 0.321 | 0.737 | 0.4 | 0.486 | 0.53 | 0.621 | 0.387 | 0.183 | 0.814 | 0.909 | 0.775 | 0.72 | 0.196 | 0.672 | 0.845 | 0.967 | 0.703 | 0.281
NCI-H647 | 0.527 | 0.483 | 0.534 | 0.49 | 0.977 | 1.03 | 1.52 | 0.461 | 0.12 | 0.534 | 0.359 | 0.6 | 0.239 | 0.0884 | 0.423 | 0.561 | 0.78 | 0.432 | 0.12
NCI-H650 | 0.465 | 0.488 | 0.511 | 0.399 | 1.25 | 1.04 | 1.16 | 0.87 | 0.802 | 0.949 | 1.06 | 1 | 0.818 | 0.819 | 0.416 | 0.498 | 0.463 | 0.295 | 0.337
NCI-H661 | 0.766 | 0.709 | 0.461 | 0.568 | 0.299 | 0.878 | 0.877 | 0.597 | 0.274 | 0.561 | 0.604 | 0.57 | 0.489 | 0.366 | 0.288 | 0.263 | 0.267 | 0.273 | 0.226
NCI-H727 | 1.11 | 1.25 | 1.45 | 1.03 | 0.56 | 0.574 | 0.61 | 0.497 | 0.245 | 0.416 | 0.344 | 0.453 | 0.406 | 0.372 | 0.529 | 0.644 | 0.622 |  | 0.423
NCI-H838 | 0.763 | 0.814 | 0.49 | 0.418 | 0.971 | 1.11 | 1.16 | 0.547 | 0.541 | 0.526 | 0.598 | 0.684 | 0.256 | 0.115 | 0.569 | 0.634 | 0.727 | 0.188 | 0.132
NCI-H1355 | 0.652 | 0.738 | 0.615 | 0.532 | 0.838 | 0.917 | 0.985 | 0.547 | 0.497 | 0.456 | 0.45 | 0.406 | 0.384 | 0.327 | 0.474 | 0.472 | 0.472 | 0.197 | 0.28
NCI-H1395 | 0.627 | 0.795 | 0.94 | 0.794 | 1.13 | 1.04 | 1.09 | 0.813 | 0.619 | 0.979 | 1.02 | 0.998 | 0.687 | 0.568 | 0.432 | 0.463 | 0.482 | 0.394 | 0.345
NCI-H1437 | 0.759 | 0.831 | 0.893 | 0.718 | 1 | 1.09 | 1.17 | 0.928 | 0.487 | 0.547 | 0.657 | 0.637 | 0.487 | 0.295 | 0.301 | 0.31 | 0.251 | 0.29 | 0.201
NCI-H1651 | 0.613 | 0.594 | 0.695 | 0.529 | 0.9 | 1.03 | 1.04 | 0.699 | 0.512 | 0.75 | 0.821 | 0.843 | 0.852 | 0.831 | 0.455 | 0.377 | 0.465 | 0.252 | 0.134
NCI-H1666 | 0.98 | 1.03 | 0.956 | 1.07 | 1.11 | 0.953 | 1.02 | 0.786 | 0.385 | 0.901 | 0.866 | 0.943 | 0.955 | 0.679 | 0.542 | 0.576 | 0.59 | 0.616 | 0.476
NCI-H1734 | 0.837 | 0.897 | 0.729 | 0.301 | 0.67 | 0.732 | 0.748 | 0.521 | 0.465 | 0.637 | 0.685 | 0.715 | 0.575 | 0.383 | 0.374 | 0.483 | 0.407 | 0.257 | 0.202
